1 compound from patent publication US9944634B2, “Pyrazolopyridine derivatives as TTX-S blockers” (RaQualia Pharma Inc., priority 2012, dated 2018) can be followed below.

Format in all cases: cell-based
Assay [1] concerns the target T1, human Nav1.7 channels (Homo sapiens, UniProt Q15858).
T1 construct: expressed in transfected cells; host or cells: CHO cells
The assay can be described thus: FRET assay, human Nav1.7 channels. As for the experimental part:
(§1) The inhibitory activities of compounds against voltage gated sodium channels are determined by methodology well known in the art.
(§2) The ability of the pyrazolopyridine derivatives of the formula (I) to inhibit the Nav1.3, Nav1.7 and Nav1.5 channels is measured by Fluorescence Resonance Energy Transfer (FRET) assay and electrophysiology assay described below.
(§3) This screen is used to determine the effects of compounds on human Nav1.3, human Nav1.7, and human Nav1.5 channels, utilising electrical field stimulation (EFS) system in 96-well plate format on FDSS (Hamamatsu Photonics) platform. The change of membrane potential is monitored with FRET dye pair, oxonol (DiSBAC2(3)) and coumarin (CC2-DMPE).
CHO cells expressing human Nav1.7 channels are grown in T225 flasks, in a 5% CO2 humidified incubator to about 80% confluence. Media composition consists of HAM/F12 with Glutamax I, 10% FCS, 100 units/mL penicillin and 100 microgram/mL hygromycin. […]
(§4) The data are analyzed and reported as normalized ratios of intensities measured at […]. […]
(§5) This analysis is performed using a computerized specific program designed for FDSS generated data. Fluorescence ratio values are plotted using XLfit to determine an IC50 value for each compound.

In assay [2] the target is T2, human Nav1.3 (hSCN3A) (Homo sapiens, UniProt Q9NY46).
T2 construct: expressed in transfected cells; host or cells: HEK293 cells
The experiment in a line: Electrophysiology assay (whole cell patch clamp), human Nav1.3. The note with it: dissociation constant for the inactivated state, HEK293 cells, read-out: activity (Ki) against Nav1.3. The procedure: (§6) Electrophysiology Assay for Nays
(§7) Whole cell patch clamp recording is used to assess the efficacy or selectivity of Na channel blocker on human Nav1.3 (hSCN3A) expressing HEK293 cells or human Nav1.7 (hSCN9A) expressing CHO cells. Human Nav1.3 expressing HEK293 cells are grown in growth media which contain: DMEM, 10% heat-inactivated FBS (Hyclone Laboratories Inc), 100 microgram/mL penicillin/100U/mL streptomycin, 150 microgram/mL Zeocin, and 3 microgram/mL Geneticin. Human Nav1.7 expressing CHO cells are grown in growth media which contain: HAMF-12, 9% heat-inactivated FBS (Hyclone Laboratories Inc), and 100 microgram/mL penicillin/100 U/mL streptomycin, and 100 microgram/mL hygromycin. […]
(§8) The normalized steady-state inactivation curve is constructed using 2 sec (for vehicle) or 60 sec (for drugs) conditioning pulse to different potentials followed immediately by the test pulse to −10 mV. […] The affinity of drugs to resting state of Na channels (Kresting or Kr) is assessed by 30 msec test pulse from a negative holding potential of -120 or −130 mV, where virtually all channels are in the resting state. Kr value is calculated by a conventional 1:1 binding model: Kresting(Kr)={[drug]Imax,drug/(Imax,control−Imax,drug)} [Math.2] • where Kresting(=Kr) is a dissociation constant for the resting state and [drug] is compound concentration. […]
A general note: In patch-clamp work, channel activity is measured electrically.

Assay [3] has as its target T3, human Nav1.5 channels (Homo sapiens, UniProt Q14524).
T3 construct: expressed in transfected cells; host or cells: HEK293 cells
The assay can be described thus: FRET assay, human Nav1.5 channels. Particulars: read-out: activity against Nav1.5 (IC50). The procedure:
as §1, §2, §3
Each HEK293 cells expressing human Nav1.3 channels and HEK293 cells expressing human Nav1.5 channels are grown in T225 flasks, in a 5% CO2 humidified incubator to about 80% confluence. Media composition consists of Dulbecco's Modified Eagle Medium (high glucose), 10% FCS, 100 units/mL penicillin, 100 microgram/mL streptomycin and 500 microgram/mL Geneticine. […]
as §4, §5

The target of assay [4] is T4, human Nav1.7 (hSCN9A) (Homo sapiens, UniProt Q15858).
T4 construct: expressed in transfected cells; host or cells: CHO cells
T4 sequence (Q15858 whole entry): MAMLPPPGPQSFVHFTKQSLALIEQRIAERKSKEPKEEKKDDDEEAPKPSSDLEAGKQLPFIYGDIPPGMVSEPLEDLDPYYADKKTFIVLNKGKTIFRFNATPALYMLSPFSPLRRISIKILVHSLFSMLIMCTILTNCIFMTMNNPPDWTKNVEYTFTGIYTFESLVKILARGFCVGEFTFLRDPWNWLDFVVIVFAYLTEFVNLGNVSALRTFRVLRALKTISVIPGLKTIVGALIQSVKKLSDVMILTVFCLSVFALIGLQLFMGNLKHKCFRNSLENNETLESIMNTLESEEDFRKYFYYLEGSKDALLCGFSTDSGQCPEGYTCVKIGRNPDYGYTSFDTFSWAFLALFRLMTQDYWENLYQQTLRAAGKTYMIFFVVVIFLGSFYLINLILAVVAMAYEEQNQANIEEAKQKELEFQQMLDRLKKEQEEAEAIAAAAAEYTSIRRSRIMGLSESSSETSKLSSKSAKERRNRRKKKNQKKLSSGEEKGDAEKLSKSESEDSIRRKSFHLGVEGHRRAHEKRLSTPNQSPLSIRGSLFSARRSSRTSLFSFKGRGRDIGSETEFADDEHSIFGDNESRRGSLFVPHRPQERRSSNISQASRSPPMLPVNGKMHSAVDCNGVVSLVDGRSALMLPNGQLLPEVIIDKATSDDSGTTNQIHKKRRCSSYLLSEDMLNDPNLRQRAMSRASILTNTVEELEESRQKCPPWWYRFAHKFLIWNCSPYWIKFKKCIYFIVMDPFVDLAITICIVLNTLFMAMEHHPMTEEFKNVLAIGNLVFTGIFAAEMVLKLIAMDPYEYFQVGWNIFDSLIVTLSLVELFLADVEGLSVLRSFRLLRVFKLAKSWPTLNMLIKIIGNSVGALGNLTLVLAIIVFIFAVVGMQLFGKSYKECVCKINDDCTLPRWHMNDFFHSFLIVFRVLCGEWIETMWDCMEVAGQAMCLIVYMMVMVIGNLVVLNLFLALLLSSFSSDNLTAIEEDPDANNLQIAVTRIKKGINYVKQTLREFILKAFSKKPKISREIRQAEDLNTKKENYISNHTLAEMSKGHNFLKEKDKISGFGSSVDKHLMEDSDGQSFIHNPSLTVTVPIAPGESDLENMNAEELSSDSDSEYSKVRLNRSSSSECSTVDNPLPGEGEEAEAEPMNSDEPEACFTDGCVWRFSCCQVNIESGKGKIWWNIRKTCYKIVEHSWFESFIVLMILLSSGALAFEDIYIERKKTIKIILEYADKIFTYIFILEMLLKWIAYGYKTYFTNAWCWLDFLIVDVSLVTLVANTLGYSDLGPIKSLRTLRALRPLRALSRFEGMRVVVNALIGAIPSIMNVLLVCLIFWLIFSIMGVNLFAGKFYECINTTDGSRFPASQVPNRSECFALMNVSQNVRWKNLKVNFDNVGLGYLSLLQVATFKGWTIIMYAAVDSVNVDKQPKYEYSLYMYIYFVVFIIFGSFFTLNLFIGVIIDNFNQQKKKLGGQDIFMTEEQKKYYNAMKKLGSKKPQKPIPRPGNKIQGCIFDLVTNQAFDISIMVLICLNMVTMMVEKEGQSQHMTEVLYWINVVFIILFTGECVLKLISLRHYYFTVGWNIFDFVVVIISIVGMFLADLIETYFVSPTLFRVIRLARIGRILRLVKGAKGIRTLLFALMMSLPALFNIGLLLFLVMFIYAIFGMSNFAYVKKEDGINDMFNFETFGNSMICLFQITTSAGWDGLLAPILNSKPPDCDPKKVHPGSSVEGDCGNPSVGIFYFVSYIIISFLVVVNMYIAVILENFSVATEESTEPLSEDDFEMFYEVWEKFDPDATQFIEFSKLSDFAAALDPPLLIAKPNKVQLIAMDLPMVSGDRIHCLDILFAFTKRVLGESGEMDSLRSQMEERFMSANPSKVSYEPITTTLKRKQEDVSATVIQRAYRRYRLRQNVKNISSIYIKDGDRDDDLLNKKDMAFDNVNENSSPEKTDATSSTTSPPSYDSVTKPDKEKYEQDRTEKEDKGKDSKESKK
The experiment in a line: Electrophysiology assay (whole cell patch clamp), human Nav1.7. The note with it: dissociation constant for the inactivated state, CHO cells, read-out: activity (Ki) against Nav1.7. The procedure:
as §6, §7, §8

The structures appear in SMILES notation. Like-named read-outs stand apart in the source and are kept apart here.

T1 sequence (Q15858 whole entry): as above
T3 sequence (Q14524 whole entry): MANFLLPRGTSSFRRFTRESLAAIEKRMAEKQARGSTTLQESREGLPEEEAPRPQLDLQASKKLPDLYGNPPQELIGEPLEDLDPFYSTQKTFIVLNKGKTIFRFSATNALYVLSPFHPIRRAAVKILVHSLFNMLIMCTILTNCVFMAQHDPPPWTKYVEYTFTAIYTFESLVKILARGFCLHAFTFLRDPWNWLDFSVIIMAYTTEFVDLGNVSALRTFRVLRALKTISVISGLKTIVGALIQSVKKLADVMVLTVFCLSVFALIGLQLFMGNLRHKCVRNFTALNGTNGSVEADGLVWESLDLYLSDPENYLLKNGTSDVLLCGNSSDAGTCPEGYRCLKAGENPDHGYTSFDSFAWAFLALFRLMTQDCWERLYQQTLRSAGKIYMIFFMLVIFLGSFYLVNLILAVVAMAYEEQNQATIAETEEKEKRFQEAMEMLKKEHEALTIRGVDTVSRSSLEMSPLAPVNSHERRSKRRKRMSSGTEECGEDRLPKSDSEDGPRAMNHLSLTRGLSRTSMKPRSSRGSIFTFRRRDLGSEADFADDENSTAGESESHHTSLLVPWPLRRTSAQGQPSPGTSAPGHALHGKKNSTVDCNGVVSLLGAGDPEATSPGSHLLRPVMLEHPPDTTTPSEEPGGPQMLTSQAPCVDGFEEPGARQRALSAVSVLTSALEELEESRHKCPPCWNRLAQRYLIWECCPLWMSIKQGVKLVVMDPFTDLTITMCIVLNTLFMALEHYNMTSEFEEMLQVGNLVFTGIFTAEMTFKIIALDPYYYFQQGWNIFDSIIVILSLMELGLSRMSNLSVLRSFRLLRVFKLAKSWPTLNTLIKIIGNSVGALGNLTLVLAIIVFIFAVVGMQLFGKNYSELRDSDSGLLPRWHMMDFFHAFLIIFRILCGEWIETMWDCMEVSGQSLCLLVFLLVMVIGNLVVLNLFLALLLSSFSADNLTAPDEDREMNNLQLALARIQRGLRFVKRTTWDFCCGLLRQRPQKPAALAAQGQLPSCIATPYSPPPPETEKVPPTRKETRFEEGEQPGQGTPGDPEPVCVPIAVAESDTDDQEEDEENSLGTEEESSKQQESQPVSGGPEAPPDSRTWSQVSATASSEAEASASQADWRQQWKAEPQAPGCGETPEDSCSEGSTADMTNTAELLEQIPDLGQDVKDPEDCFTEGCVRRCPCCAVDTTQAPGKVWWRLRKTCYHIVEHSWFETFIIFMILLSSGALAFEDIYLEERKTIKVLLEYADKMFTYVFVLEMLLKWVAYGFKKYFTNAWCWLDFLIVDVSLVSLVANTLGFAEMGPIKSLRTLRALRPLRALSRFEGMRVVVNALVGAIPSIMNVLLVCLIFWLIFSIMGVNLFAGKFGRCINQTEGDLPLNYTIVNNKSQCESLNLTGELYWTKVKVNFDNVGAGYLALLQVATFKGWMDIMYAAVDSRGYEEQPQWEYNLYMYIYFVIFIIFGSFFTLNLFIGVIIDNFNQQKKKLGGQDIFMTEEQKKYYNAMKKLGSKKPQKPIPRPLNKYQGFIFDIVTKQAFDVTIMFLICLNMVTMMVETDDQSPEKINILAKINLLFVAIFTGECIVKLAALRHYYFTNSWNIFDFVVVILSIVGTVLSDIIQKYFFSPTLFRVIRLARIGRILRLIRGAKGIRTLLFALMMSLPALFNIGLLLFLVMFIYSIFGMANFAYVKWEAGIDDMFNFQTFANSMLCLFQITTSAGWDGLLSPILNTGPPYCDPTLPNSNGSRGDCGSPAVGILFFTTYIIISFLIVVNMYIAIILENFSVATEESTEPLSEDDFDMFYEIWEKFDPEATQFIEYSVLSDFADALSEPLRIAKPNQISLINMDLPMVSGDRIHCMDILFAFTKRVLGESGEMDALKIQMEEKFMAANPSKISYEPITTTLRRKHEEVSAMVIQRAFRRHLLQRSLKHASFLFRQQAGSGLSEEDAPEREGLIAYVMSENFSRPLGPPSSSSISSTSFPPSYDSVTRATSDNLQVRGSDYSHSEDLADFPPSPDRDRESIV

As to `Cc1cc(Cn2cc3c(NC(=O)C(C)(C)O)nccc3n2)cnc1OCC(F)(F)F` [Example 2, 2-hydroxy-2-methyl-N-(2-((5-methyl-6-(2,2,2-trifluoroethoxy)pyridin-3-yl)methyl)-2H-pyrazolo[4,3-c]pyridin-4-yl)propanamide], the IC50 in assay [1] (bound holds for Nav1.7 and/or Nav1.3, not stated which, read-out: IC50 against Nav1.7 and/or Nav1.3) was < 1000 nM; in assay [1] (read-out: activity against Nav1.7 (IC50)), 380 nM; in assay [3], > 30 µM. Also, the Ki in assay [2] is 570 nM; in assay [4], 340 nM.
